# Results taken from publication PMC12189671, “Antioxidant Activity and Cytotoxicity Evaluation of New Catechol Hydrazinyl-Thiazole Derivatives as Potential Protectors in Retinal Degenerative Processes” (Antioxidants, 2025).
# Experiments:
# [1] = Cell viability (resazurin) on ARPE-19; assay type: cell-based, human; conditions: human, ARPE-19 cells; for IC50 at 24 h: ARPE-19, 24 h, read-out: 24 h Exposure IC50 (cytotoxicity); for IC50 at 48 h: ARPE-19, 48 h, read-out: 48 h Exposure IC50 (cytotoxicity)
# From the text: The ARPE-19 cell line was purchased from CLS Cell Lines Service GmbH (Eppelheim, Germany) and cultured in Dulbecco’s modified Eagle’s medium/F-12 (HAM) 1:1 (Biological Industries, Beit, Israel). The medium was supplemented with 10% fetal bovine serum (FBS) (Thermo Fisher Scientific, Waltham, MA, USA) and 1% penicillin-streptomycin (Biosera, Cholet, France). The cancerous cell line A549 was purchased from ATCC (Manassas, VA, USA) and cultivated in high-glucose Dulbecco’s modified Eagle’s medium (DMEM 4.5 g/L). The normal BJ cell line was also purchased from ATCC (Manassas, VA, USA) and was cultivated in low-glucose Dulbecco’s modified Eagle’s medium (DMEM 1 g/L). The media was supplemented in both cases with 10% FBS. Cells were cultured in T75 flasks and incubated at 37 °C in a humidified incubator with 5% CO2 supplementation. For maintenance, the media was changed every 2–3 days, and when the confluence of the flask reached approximately 85%, the cells were either subcultured or further used in the experiments.
# ARPE-19 cells were seeded at a density of 2 × 10^4 cells/well and 1 × 10^4 cells/well (suspended in 100 µL) in 96-well plates for 24 h and 48 h, respectively. For the BJ cells, the seeding density was 0.5 × 10^4 cells/well and 0.3 × 10^4 cells/well for 24 h and 48 h, respectively, and for the A549 cells, 1.5 × 10^4 cells/well for 24 h and 0.75 × 10^4 cells/well for 48 h. As cells have different sizes and volumes, the different seeding densities were selected to reach a confluency of 80–90% by the end of the experiments. Cells were further exposed to the synthesized compounds for 24/48 h at concentrations ranging from 12.5 to 500 µM. After the incubation period, the exposure media was removed, the cells were washed with PBS, and further incubated with a 200 µM resazurin solution for 3 h as described in our previous report. The conversion of resazurin to the fluorescent resorufin compound by viable cells was measured at λexcitation = 550; λemission = 600, using SpectraMax iD3 (Molecular Devices, San Jose, CA, USA). The experiments were conducted in biological triplicate, each with a minimum of 3 technical replicates. The measured viability was expressed as relative values to the control (cells exposed only to the vehicle–culture medium containing 0.4% DMSO).
# [2] = Indirect 1O2 scavenging assay (ICG photo-generator, DPBF probe); conditions: 10^−5 M ICG and scavenger, 785 nm laser, 100 s
# Method: The ^1O2 scavenging assay was employed using a previously established indirect protocol from our research group. In brief, indocyanine green (ICG), from Sigma–Aldrich (St. Louis, MO, USA), was utilized to induce ^1O2 production in the presence of 5a and 5b. Ascorbic acid was used as a reference antioxidant agent, and a blank sample without ^1O2 scavengers was prepared. The reaction mixtures were exposed to a Micro Raman System R-3000 (Photonitech, Singapore, Singapore) laser diode,(λ = 785 nm, 190 mW power) for a total time of 100 s. To evaluate the ^1O2 scavenging activity of the compounds 5a,b, the degradation of 1,3-diphenylisobenzofuran (DPBF), obtained from Alfa Aesar (Haverhill, MA, USA), was measured using a V-730 spectrophotometer (Jasco International Co., Ltd., Tokyo, Japan). To determine the ^1O2 quantum yields (Φ(^1O2)) of ICG in the presence of the studied molecules, the following equation was used: Φ(^1O2) = Φ(^1O2) ^ICG × ((S × F^ICG)/(S^ICG × F)), where S represents the slope of the absorbance difference of DPBF over time, F is the absorption correction factor (F = 1 − 10^−OD), and OD is the optical density at the excitation wavelength, λ = 785 nm. The Φ(^1O2) equal to 15.0% of free ICG was used as a reference. The concentrations utilized in the experiment were 0.1 mM for DPBF and 10^−5 M for ICG and the ^1O2 scavengers. Free DPBF was used as a control.
# The efficacy of compounds 5a,b against ^1O2 was assessed using an indirect approach. ICG was used as a photo-induced ^1O2 generator alongside DPBF, serving as an indirect chemical probe capable of characterizing ^1O2 release in solution. This setup allowed us to evaluate the ^1O2 scavenging capacity of the tested molecules and compare their activity to a reference compound, specifically ascorbic acid. The samples were exposed to 785 nm laser radiation, and at 10-s intervals after irradiation, their UV-Vis absorption spectra were measured and analyzed (Figure 9). Subsequently, we determined the ^1O2 quantum yields (Φ(^1O2)) of ICG in the presence of 5a,b and ascorbic acid, using the Φ(^1O2) of free ICG of 15.0% as reference.
# [3] = Reducing Power (RP) assay; conditions: molar equivalents of reference compound
# From the text: The results of the evaluation of the electron ability transfer of the tested compound were expressed as molar equivalents of the reference compound per one mol of the tested compound using the formula: % of control activity=sample absorbance/reference absorbance×100 In the Reducing Power (RP) assay, the tested compounds reduce ferric ions from potassium ferricyanide, forming ferrocyanide, which produces a blue complex. The protocol used is an adaptation of previously reported methodologies. […] The tubes were sealed and incubated for 20 min in a water bath at 50 °C. […] Subsequently, 250 µL of the resulting solutions were mixed with 140 µL of FeCl3 solution (0.1% w/v) and 1000 µL of distilled water, and the absorbance of the resulting solutions was measured at λ = 695 nm.
# [4] = Total Antioxidant Capacity (TAC) assay; conditions: molar equivalents of reference compound
# Method: The results of the evaluation of the electron ability transfer of the tested compound were expressed as molar equivalents of the reference compound per one mol of the tested compound using the formula: % of control activity=sample absorbance/reference absorbance×100 The Total Antioxidant Capacity (TAC) assay operates on the principle of reducing molybdenum (VI) to molybdenum (V) by the antioxidants being assessed, resulting in the formation of a blue-green complex. This assay was performed following the methodology detailed in our previous publication, which was based on initial reports from the literature. […] These were then incubated in a water bath at 95 °C for 90 min. After cooling to room temperature, 1 mL of each solution was diluted with 1 mL of water. The absorbance of the solutions was subsequently measured at λ = 695 nm.
# [5] = Ferrous ions chelation assay (ferrozine)
# Method: Solutions of the tested compounds or ethylenediaminetetraacetic acid disodium salt (EDTA-Na2), used as a positive control, were thoroughly mixed with 0.5 mL of FeSO4 (0.125 mM) and 0.5 mL of ferrozine (0.315 mM). After a 10-min incubation in the dark at room temperature, the absorbance was measured at λ = 562 nm.
structure (smiles),measurement,setting,value
"CC1=C(/C=C/C(C)=N/Nc2nc(-c3ccc(O)c(O)c3)cs2)C(C)(C)CCC1.Cl [Compound 5b, 4-(2-(2-((2E,3E)-4-(2,6,6-trimethylcyclohex-1-en-1-yl)but-3-en-2-ylidene) hydrazineyl)thiazol-4-yl)benzene-1,2-diol hydrochloride]",IC50 at 24 h,[1],31.5 µM
same,IC50 at 48 h,[1],52.1 µM
same,"viability at 24 h, 12.5 µM","[1]; ARPE-19, 24-h exposure, 12.5 µM, read-out: cell viability (% of control)",63.5%
same,^1O2 quantum yield Φ(^1O2) of ICG in the presence of the scavenger,[2],11%
same,RP Eq Ascorbic Acid,[3],1.90 Eq Ascorbic Acid
same,RP Eq Trolox,[3],1.58 Eq Trolox
same,TAC Eq Ascorbic Acid,[4],2.56 Eq Ascorbic Acid
same,% of ferrous ions chelation,[5]; 50 nM,− (less than 5% chelation activity)
same,% of ferrous ions chelation,[5]; 100 nM,− (less than 5% chelation activity)
same,% of ferrous ions chelation,[5]; 150 nM,− (less than 5% chelation activity)
same,% of ferrous ions chelation,[5]; 175 nM,− (less than 5% chelation activity)
same,% of ferrous ions chelation,[5]; 200 nM,− (less than 5% chelation activity)
"C/C=C/C=N/Nc1nc(-c2ccc(O)c(O)c2)cs1.Cl [Compound 5a, 4-(2-(2-((1E,2E)-but-2-en-1-ylidene)hydrazineyl)thiazol-4-yl)benzene-1,2-diol hydrochloride]",IC50 at 24 h,[1],90.1 µM
same,IC50 at 48 h,[1],92.7 µM
same,^1O2 quantum yield Φ(^1O2) of ICG in the presence of the scavenger,[2],11.1%
same,RP Eq Ascorbic Acid,[3],2.55 Eq Ascorbic Acid
same,RP Eq Trolox,[3],2.12 Eq Trolox
same,TAC Eq Ascorbic Acid,[4],2.82 Eq Ascorbic Acid
same,% of ferrous ions chelation,[5]; 50 nM,− (less than 5% chelation activity)
same,% of ferrous ions chelation,[5]; 100 nM,− (less than 5% chelation activity)
same,% of ferrous ions chelation,[5]; 150 nM,− (less than 5% chelation activity)
same,% of ferrous ions chelation,[5]; 175 nM,− (less than 5% chelation activity)
same,% of ferrous ions chelation,[5]; 200 nM,− (less than 5% chelation activity)
